How the values were obtained:
Monoclonal antibody 3E7 [1] = details: solution assay, MAb 3E7; read-out: equilibrium binding constant (Kd); cited from earlier work
Monoclonal antibody 3E7 [2] = assay: staining of peptide beads with fluorescently labeled antibody 3E7 and FACS sorting; type: binding; details: peptide on oligonucleotide-tagged beads
Procedure: The beads coupled with the 95 mer and YGGFL were mixed with the beads that were coupled to the 110 mer and F in the ratio of 1:20. Thus, 0.1 mg of 95 mer/YGGFL beads (2 million beads) were mixed with 2.0 mg of the 110 mer/Phe beads (40 million beads). The mixture was suspended in blocking buffer (PBS, 1% BSA, and 0.05% Tween-20) and incubated at room temperature for 1 hr. The beads were next pelleted by centrifugation and resuspended in a solution of an FITC-labeled monoclonal antibody 3E7 that binds the peptide YGGFL (1 μg/mL). The suspension was incubated 0.5 hr on ice and then centrifuged to isolate the bead pellet.
The beads were resuspended in PBS for delivery into the fluorescence activated cell sorting (FACS) instrument (Becton Dickinson FACSORT Plus). Beads that had bound to the fluorescently labeled antibody were identified by their acquired fluorescence, and fluorescent beads were isolated by sorting into PCR tubes. One, ten, or one hundred fluorescent beads were sorted into each PCR tube. […]
The beads were resuspended in PBS for delivery into the fluorescence activated cell sorting (FACS) instrument (Becton Dickinson FACSORT Plus). Beads that had bound to the fluorescently labeled antibody were identified by their acquired fluorescence (see FIG. 10), and homogeneous samples of either fluorescent or non-fluorescent beads were isolated by sorting into PCR tubes. […]

Monoclonal antibody 3E7 [3] = assay: magnetic selection of peptide beads by microbead-conjugated 3E7, analysed by flow cytometry; type: binding; details: 16 hr incubation at 4 degrees C in PBS, high strength magnet
Procedure: After a 16 hr incubation at 4 degrees C, beads which bind the 3E7 antibody are selected using a high strength magnet. The selected beads are then analyzed by flow cytometry.

## pentapeptide L-Tyr-Gly-Gly-L-Phe-L-Leu, ligand of monoclonal antibody 3E7 [YGGFL]
Monoclonal antibody 3E7 [1]
  Kd: 6.6 nM
Monoclonal antibody 3E7 [2]
  binding of the peptide by fluorescently labeled antibody 3E7: high affinity
Monoclonal antibody 3E7 [3]
  selection of peptide-bearing beads by 3E7 antibody: only beads displaying the peptide YGGFL are selected

Source: patent US6416949B1, “Method of synthesizing diverse collections of oligomers” (Affymax, Inc., priority 1991, dated 2002)
